Laboratory results taken from ChEMBL document CHEMBL3886580, “B-RAF kinase inhibitors” (2016).

Biological target: Serine/threonine-protein kinase B-raf (Homo sapiens, UniProt P15056, V600E)
Assay: B-RAF (V600E) Kinase Assay: In a dilution series 10 uL/well of test substance solution are placed in a multiwell plate. The dilution series is selected so that generally a range of concentrations of 2 uM to 0.119 nM or 0.017 nM is covered. If necessary the initial concentration of 2 uM is changed to 50 uM, 10 uM or 0.4 uM or 0.2857 uM and further dilution is carried out accordingly. The final concentration of DMSO is 5%. 10 uL/well of the B-Raf (V600E)-kinase solution are pipetted in (containing 0.5 ng B-Raf (V600E)-kinase (e.g. from Upstate) in 20 mM Tris-HCl pH 7.5, 0.1 mM EDTA, 0.1 mM EGTA, 0.286 mM sodium orthovanadate, 10% glycerol, 1 mg/mL bovine serum albumin, 1 mM dithiothreitol) and the mixture is incubated for 1 h at RT under with shaking. The kinase reaction is started by the addition of 20 uL/well ATP solution [final concentration: 250 uM ATP, 30 mM Tris-HCl pH 7.5, 0.02% Brij, 0.2 mM sodium orthovanadate, 10 mM magnesium acetate, 0.1 mM EGTA, phosphatase cocktail (Sigma, #P2850, dilution recommended by the manufacturer)] and 10 uL/well MEK1 solution [containing 50 ng biotinylated MEK1 (prepared from purified MEK1 according to standard procedure, e.g. with EZ-Link Sulpho-NHS-LC-Biotin reagent, Pierce, #21335)] and carried out for 60 min at RT with constant shaking. The reaction is stopped by the addition of 12 uL/well of a 100 mM EDTA solution and incubation is continued for a further 5 min. 55 uL/well of the reaction solution are transferred into a streptavidin-coated plate (e.g. Streptawell HighBond, Roche, #11989685001) and shaken gently for 1 h at RT, in order to bind biotinylated MEK1 to the plate. After elimination of the liquid the plate is washed five times with 200 uL/well of 1ÿPBS and 100 uL/well solution of primary antibody plus europium-labelled secondary antibody [Anti Phospho-MEK (Ser217/221), Cell Signaling, #9121 and Eu-N1 labelled goat-anti-rabbit antibody, Perkin Elmer, #AD0105] is added, the primary antibody is diluted 1:2000 and the secondary antibody is diluted to 0.4-0.5 ug/mL in Delfia Assay Buffer (Perkin Elmer, #1244-111). After 1 h shaking at RT the solution is poured away and washed five times with 200 uL/well Delfia Wash Buffer (Perkin Elmer, #4010-0010/#1244-114). After the addition of 200 uL/well Enhancement Solution (Perkin Elmer, #4001-0010/#1244-105) the mixture is shaken for 10 min at RT and then measured in a Wallac Victor using the program "Delfia Time Resolved Fluorescence (Europium)". IC50 values are obtained from these dosage-activity curves using a software program (GraphPadPrizm).

Chain of Serine/threonine-protein kinase B-raf (P15056 2-766 V600E limits assumed): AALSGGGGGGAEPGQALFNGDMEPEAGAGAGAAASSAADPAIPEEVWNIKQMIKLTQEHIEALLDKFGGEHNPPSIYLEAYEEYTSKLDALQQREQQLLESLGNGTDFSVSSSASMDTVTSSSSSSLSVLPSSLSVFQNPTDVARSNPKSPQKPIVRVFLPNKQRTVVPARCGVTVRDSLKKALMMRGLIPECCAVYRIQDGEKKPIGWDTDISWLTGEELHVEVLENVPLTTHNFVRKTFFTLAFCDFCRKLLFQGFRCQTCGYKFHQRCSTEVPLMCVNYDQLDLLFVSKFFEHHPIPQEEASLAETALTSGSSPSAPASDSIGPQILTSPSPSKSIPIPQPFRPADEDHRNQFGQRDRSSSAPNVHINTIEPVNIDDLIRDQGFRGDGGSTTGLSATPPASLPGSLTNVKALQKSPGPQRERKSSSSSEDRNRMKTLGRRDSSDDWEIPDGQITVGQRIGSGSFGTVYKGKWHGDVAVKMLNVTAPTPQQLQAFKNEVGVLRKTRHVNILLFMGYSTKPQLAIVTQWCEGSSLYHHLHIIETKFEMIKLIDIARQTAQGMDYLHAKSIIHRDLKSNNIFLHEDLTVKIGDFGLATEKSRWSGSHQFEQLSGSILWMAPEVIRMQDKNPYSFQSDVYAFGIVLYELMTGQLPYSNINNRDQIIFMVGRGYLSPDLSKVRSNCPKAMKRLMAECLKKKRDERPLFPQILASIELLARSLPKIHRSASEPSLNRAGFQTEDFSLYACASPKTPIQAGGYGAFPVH

| SMILES | IC50 |
| --- | --- |
| Cc1ccc(NC(=O)c2ccc(C(C)(C)C)s2)cc1-n1cc(-c2cncc(N3CCNCC3)c2)nn1 | 4 nM |
| C=CCN1CCN(c2cncc(-c3cn(-c4cc(NC(=O)c5ccc(C(C)(C)C)s5)ccc4C)nn3)c2)CC1 | 13 nM |
| Cc1ccc(NC(=O)c2ccc(C(C)(C)C)s2)cc1-n1cc(-c2cncc(N3CCN(CC(C)C)CC3)c2)nn1 | 18 nM |

Next, values leading:

| IC50 | SMILES |
| --- | --- |
| 11 nM | CCN1CCN(c2cncc(-c3cn(-c4cc(C(=O)Nc5cc(C(C)(C)C)on5)ccc4C)nn3)c2)CC1C (stereo not given) |
| 6 nM | Cc1ccc(NC(=O)c2ccc(C(C)(C)C)s2)cc1-n1cc(-c2cncc(N3CCN(C)CC3)c2)nn1 |
